Data from US9926282B2, “Phthalazinones and isoquinolinones as rock inhibitors” (BRISTOL-MYERS SQUIBB COMPANY, priority 2013, dated 2018).

Legend:
ROCK1 = ROCK1 (Homo sapiens (Human), UniProt Q13464); assay: ROCK assay (LABCHIP peptide phosphorylation), ROCK1; assay type: biochemical; conditions: 5 μM ATP, 1.5 μM peptide substrate; read-out: ROCK1 IC50
ROCK2 = ROCK2 (Homo sapiens (Human), UniProt O75116); assay: ROCK assay (LABCHIP peptide phosphorylation), ROCK2; assay type: biochemical; conditions: 5 μM ATP, 1.5 μM peptide substrate
Sequence of ROCK2 (O75116 whole entry, species assumed): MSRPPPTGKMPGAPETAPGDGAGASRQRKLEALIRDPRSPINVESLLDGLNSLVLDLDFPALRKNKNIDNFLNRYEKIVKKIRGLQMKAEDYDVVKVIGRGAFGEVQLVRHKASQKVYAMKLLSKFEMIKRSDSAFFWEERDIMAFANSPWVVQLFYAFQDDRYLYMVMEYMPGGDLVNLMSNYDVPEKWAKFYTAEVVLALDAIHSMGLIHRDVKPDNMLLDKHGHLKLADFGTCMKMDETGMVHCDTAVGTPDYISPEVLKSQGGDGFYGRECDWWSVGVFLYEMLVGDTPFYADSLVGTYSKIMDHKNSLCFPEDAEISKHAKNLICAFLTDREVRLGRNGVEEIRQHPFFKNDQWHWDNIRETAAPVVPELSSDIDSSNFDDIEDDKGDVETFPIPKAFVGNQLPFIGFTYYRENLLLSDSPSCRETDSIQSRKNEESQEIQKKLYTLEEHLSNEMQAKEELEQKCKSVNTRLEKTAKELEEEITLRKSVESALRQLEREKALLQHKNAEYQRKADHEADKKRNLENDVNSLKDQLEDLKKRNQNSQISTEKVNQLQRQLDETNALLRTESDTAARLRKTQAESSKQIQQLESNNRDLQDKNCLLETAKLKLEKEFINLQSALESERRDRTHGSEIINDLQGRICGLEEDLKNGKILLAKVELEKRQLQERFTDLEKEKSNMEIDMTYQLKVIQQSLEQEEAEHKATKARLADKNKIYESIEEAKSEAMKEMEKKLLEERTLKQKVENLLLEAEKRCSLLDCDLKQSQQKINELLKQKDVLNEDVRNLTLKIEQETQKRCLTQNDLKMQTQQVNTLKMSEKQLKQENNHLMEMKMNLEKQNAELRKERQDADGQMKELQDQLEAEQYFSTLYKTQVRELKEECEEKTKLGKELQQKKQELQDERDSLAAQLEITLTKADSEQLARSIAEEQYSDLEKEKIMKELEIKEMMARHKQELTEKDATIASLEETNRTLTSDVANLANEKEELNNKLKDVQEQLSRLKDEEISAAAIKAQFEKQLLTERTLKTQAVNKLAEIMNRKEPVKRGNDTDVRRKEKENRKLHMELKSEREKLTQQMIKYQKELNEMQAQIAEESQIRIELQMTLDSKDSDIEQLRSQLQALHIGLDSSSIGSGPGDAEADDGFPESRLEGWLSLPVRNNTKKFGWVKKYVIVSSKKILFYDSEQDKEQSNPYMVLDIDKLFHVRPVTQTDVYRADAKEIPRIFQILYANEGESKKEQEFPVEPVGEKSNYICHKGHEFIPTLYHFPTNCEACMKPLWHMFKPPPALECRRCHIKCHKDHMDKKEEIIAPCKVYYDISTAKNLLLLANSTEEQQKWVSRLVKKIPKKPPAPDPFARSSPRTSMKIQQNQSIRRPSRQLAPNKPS

Sequence of ROCK1 (Q13464 whole entry, species assumed): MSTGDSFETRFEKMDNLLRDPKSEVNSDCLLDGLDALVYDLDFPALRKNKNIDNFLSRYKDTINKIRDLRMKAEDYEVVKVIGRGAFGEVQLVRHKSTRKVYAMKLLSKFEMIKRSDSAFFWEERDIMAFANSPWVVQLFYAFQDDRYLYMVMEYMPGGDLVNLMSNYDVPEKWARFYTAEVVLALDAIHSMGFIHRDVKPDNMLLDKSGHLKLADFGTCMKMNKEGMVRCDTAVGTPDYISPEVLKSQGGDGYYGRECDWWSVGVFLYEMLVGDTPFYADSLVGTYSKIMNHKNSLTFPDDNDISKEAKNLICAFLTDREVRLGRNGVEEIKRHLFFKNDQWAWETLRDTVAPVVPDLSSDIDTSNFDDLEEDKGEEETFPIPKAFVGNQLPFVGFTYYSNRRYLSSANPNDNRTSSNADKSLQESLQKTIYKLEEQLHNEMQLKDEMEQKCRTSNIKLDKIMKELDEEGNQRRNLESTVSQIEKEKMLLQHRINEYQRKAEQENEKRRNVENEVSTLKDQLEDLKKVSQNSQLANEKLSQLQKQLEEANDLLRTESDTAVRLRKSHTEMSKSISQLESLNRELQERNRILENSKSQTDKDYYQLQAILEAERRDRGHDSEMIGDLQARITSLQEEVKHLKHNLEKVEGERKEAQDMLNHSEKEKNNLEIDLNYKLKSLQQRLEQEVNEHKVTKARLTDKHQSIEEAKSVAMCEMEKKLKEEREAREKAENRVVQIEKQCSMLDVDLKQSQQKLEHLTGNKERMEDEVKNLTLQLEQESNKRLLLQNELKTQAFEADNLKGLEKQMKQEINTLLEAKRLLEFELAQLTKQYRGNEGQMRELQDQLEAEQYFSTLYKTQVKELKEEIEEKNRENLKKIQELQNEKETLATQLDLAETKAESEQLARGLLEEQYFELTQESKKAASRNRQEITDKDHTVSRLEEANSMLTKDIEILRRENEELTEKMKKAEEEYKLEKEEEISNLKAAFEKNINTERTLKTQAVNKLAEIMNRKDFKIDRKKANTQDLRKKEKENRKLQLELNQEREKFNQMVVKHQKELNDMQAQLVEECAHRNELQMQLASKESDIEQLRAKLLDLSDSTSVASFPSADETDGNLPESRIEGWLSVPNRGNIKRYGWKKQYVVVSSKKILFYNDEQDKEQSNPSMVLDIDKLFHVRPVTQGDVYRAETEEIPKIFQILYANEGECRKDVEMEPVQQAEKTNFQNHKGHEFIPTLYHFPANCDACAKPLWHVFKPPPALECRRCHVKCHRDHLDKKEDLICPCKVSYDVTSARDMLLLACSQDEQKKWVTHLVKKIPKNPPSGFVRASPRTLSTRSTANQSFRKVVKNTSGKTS

| Molecule | IC50 (ROCK1) [nM] | IC50 (ROCK2) [nM] |
| --- | --- | --- |
| CCOc1ccc2c(c1)N(C(=O)Cc1ccc(-c3c[nH]c(=O)c4ccccc34)cc1)CC2 [Example 254, 4-(4-(2-(6-Ethoxyindolin-1-yl)-2-oxoethyl)phenyl)isoquinolin-1(2H)-one] | 101 to 1000 | 0.1 to 100 |
| CC1(Cn2nc(C(=O)Nc3ccc(-c4n[nH]c(=O)c5ccccc45)c(Cl)c3)c3ccccc32)COC1 [Example 320, N-[3-chloro-4-(4-oxo-3,4-dihydrophthalazin-1-yl)phenyl]-1-[(3-methyloxetan-3-yl)methyl]-1H-indazole-3-carboxamide] | 0.1 to 100 | 0.1 to 100 |
| COc1ccc(-n2nnc(C(=O)Nc3ccc(-c4n[nH]c(=O)c5ccccc45)cc3)c2C)cc1 [Example 401, 1-(4-Methoxyphenyl)-5-methyl-N-(4-(4-oxo-3,4-dihydrophthalazin-1-yl)phenyl)-1H-1,2,3-triazole-4-carboxamide] | 0.1 to 100 | 0.1 to 100 |
| Cc1cc(NC(=O)Cc2ccc(-c3n[nH]c(=O)c4ccccc34)cc2)no1 [Example 27, N-(5-methyl-1,2-oxazol-3-yl)-2-[4-(4-oxo-3,4-dihydrophthalazin-1-yl)phenyl]acetamide] | 1000 to 50000 | 0.1 to 100 |
| N-[4-(4-oxo-3,4- dihydrophthalazin-1- yl)phenyl]pyrazolo[1,5- a]pyrimidine-2- carboxamide [Example 102] | 0.1 to 100 | 0.1 to 100 |
| Cc1ccn2c(C(=O)Nc3ccc(-c4n[nH]c(=O)c5ccccc45)cc3)c(C)nc2c1 [Example 139, 2,7-dimethyl-N-[4-(4-oxo-3,4-dihydrophthalazin-1-yl)phenyl]imidazo[1,2-a]pyridine-3-carboxamide] | 0.1 to 100 | 0.1 to 100 |
| CC(C)(O)COc1ccc2c(c1)N(C(=O)Cc1ccc(-c3c[nH]c(=O)c4ccccc34)cc1)CC2 [Example 288, 4-(4-(2-(6-(2-Hydroxy-2-methylpropoxy)indolin-1-yl)-2-oxoethyl)phenyl)isoquinolin-1(2H)-one] | 0.1 to 100 | 0.1 to 100 |
| Cc1cc(NC(=O)c2onc3ccccc23)ccc1-c1n[nH]c(=O)c2ccccc12 [Example 306, N-[3-methyl-4-(4-oxo-3,4-dihydrophthalazin-1-yl)phenyl]-2,1-benzoxazole-3-carboxamide] | 101 to 1000 | 0.1 to 100 |
| CC(O)Cn1nc(C(=O)Nc2ccc(-c3n[nH]c(=O)c4ccccc34)cc2)c2ccccc21 (centres unmarked) [Example 153, 1-(2-hydroxypropyl)-N-[4-(4-oxo-3,4-dihydrophthalazin-1-yl)phenyl]-1H-indazole-3-carboxamide] | 0.1 to 100 | 0.1 to 100 |
| O=C(Oc1ccc(-c2n[nH]c(=O)c3ccccc23)cc1)N1CCC(c2ccccc2)C1 (centres unmarked) [Example 69, 4-(4-Oxo-3,4-dihydrophthalazin-1-yl)phenyl 3-phenylpyrrolidine-1-carboxylate] | 1000 to 50000 | 101 to 1000 |
| Cc1cc(CC(=O)N2Cc3ccccc3C2)ccc1-c1n[nH]c(=O)c2ccccc12 [Example 260, 4-(4-(2-(Isoindolin-2-yl)-2-oxoethyl)-2-methylphenyl)phthalazin-1(2H)-one] | 101 to 1000 | 0.1 to 100 |
| O=C(Cc1ccc(-c2n[nH]c(=O)c3ccccc23)cc1)N1CCC(Cc2ccccc2)CC1 [Example 17, 4-{4-[2-(4-benzylpiperidin-1-yl)-2-oxoethyl]phenyl}-1,2-dihydrophthalazin-1-one] | 1000 to 50000 | 0.1 to 100 |
| CN1CCN(C(=O)c2ccc3c(c2)N(C(=O)Cc2ccc(-c4n[nH]c(=O)c5ccccc45)cc2)CC3)CC1 [Example 292, 4-(4-{2-[6-(4-methylpiperazine-1-carbonyl)-2,3-dihydro-1H-indol-1-yl]-2-oxoethyl}phenyl)-1,2-dihydrophthalazin-1-one] | 101 to 1000 | 0.1 to 100 |
| O=C(Nc1ccc(-c2n[nH]c(=O)c3ccccc23)cc1)c1nn(Cc2ccccn2)c2ccccc12 [Example 160, N-[4-(4-oxo-3,4-dihydrophthalazin-1-yl)phenyl]-1-(pyridin-2-ylmethyl)-1H-indazole-3-carboxamide] | 0.1 to 100 | 0.1 to 100 |
| CC(C)(O)Cn1nc(C(=O)Nc2ccc(-c3n[nH]c(=O)c4ccccc34)cc2)c2ccccc21 [Example 137, 1-(2-hydroxy-2-methylpropyl)-N-[4-(4-oxo-3,4-dihydrophthalazin-1-yl)phenyl]-1H-indazole-3-carboxamide] | 0.1 to 100 | 0.1 to 100 |
| O=C(Cc1ccc(-c2n[nH]c(=O)c3ccccc23)cc1)N1CCc2ccc(OCCN3CCCC3)cc21 [Example 286, 4-[4-(2-oxo-2-{6-[2-(pyrrolidin-1-yl)ethoxy]-2,3-dihydro-1H-indol-1-yl}ethyl)phenyl]-1,2-dihydrophthalazin-1-one] | 101 to 1000 | 0.1 to 100 |
| Cc1noc(-c2ccc(CO)cc2)c1C(=O)Nc1ccc(-c2n[nH]c(=O)c3ccccc23)cc1 [Example 224, 5-[4-(hydroxymethyl)phenyl]-3-methyl-N-[4-(4-oxo-3,4-dihydrophthalazin-1-yl)phenyl]-1,2-oxazole-4-carboxamide] | 0.1 to 100 | 0.1 to 100 |
| Cc1cc(NC(=O)c2nn(CC3CCN(CCCCO)CC3)c3ccccc23)ccc1-c1n[nH]c(=O)c2ccccc12 [Example 321, 1-((1-(4-Hydroxybutyl)piperidin-4-yl)methyl)-N-(3-methyl-4-(4-oxo-3,4-dihydrophthalazin-1-yl)phenyl)-1H-indazole-3-carboxamide] | 0.1 to 100 | 101 to 1000 |
| O=C(Nc1ccc(-c2c[nH]c(=O)c3ccccc23)cc1)c1ccc(N2CCCC2)cc1 [Example 251, N-(4-(1-Oxo-1,2-dihydroisoquinolin-4-yl)phenyl)-4-(pyrrolidin-1-yl)benzamide] | 101 to 1000 | 0.1 to 100 |
| Cc1cc(CC(=O)N2Cc3ccccc3C2)ccc1-c1c[nH]c(=O)c2ccccc12 [Example 263, 4-(4-(2-(Isoindolin-2-yl)-2-oxoethyl)-2-methylphenyl)isoquinolin-1(2H)-one] | 101 to 1000 | 0.1 to 100 |
| COCCN1CCC(C(=O)Nc2ccc(-c3n[nH]c(=O)c4ccccc34)cc2)C1 (centres unmarked) [Example 57, 1-(2-methoxyethyl)-N-[4-(4-oxo-3,4-dihydrophthalazin-1-yl)phenyl]pyrrolidine-3-carboxamide] | 1000 to 50000 | 1000 to 50000 |
| Cn1ccc(C(=O)Nc2ccc(-c3n[nH]c(=O)c4ccccc34)cc2)n1 [Example 227, 1-methyl-N-[4-(4-oxo-3,4-dihydrophthalazin-1-yl)phenyl]-1H-pyrazole-3-carboxamide] | 101 to 1000 | 0.1 to 100 |
| O=C(Cc1ccc(-c2n[nH]c(=O)c3ccccc23)cc1)Nc1ccc2ncsc2c1 [Example 21] | 101 to 1000 | 0.1 to 100 |
| Cc1cccc(-n2cnc(C(=O)Nc3ccc(-c4n[nH]c(=O)c5ccccc45)cc3)c2)c1 [Example 195, 1-(3-methylphenyl)-N-[4-(4-oxo-3,4-dihydrophthalazin-1-yl)phenyl]-1H-imidazole-4-carboxamide] | 0.1 to 100 | 0.1 to 100 |
| CN(C)CCOc1ccc2c(C(=O)Nc3ccc(-c4n[nH]c(=O)c5ccccc45)cc3)cnn2c1 [Example 177, 6-[2-(dimethylamino)ethoxy]-N-[4-(4-oxo-3,4-dihydrophthalazin-1-yl)phenyl]pyrazolo[1,5-a]pyridine-3-carboxamide] | 0.1 to 100 | 0.1 to 100 |
